Assay results taken from patent US20260000642A1 (Tay Therapeutics Limited, priority 2022, published 2026).
Several values for one entry are separate records, joined by “and”; a condition that tells them apart may be missing. Equal entries are not always repeated.

Test system: collagen-induced arthritis in Lewis rats
Assay: Collagen-induced arthritis (CIA) model in rats: body weight, paw volume, clinical scores, clinical observations
Conditions: for Animal body weight percent change / Animal body weight: Group 5 (CIA + Example 101 3 mg/kg)
[1] = Day 1, individual animals, 3 mg/kg
[2] = Day 3, individual animals, 3 mg/kg
[3] = Day 7, individual animals, 3 mg/kg

Method: Prior to be randomly placed in treatment groups, animals were weighed, and paw volume was measured. Once randomly assigned to treatment groups, on Day 0, animals in groups 2-9 were immunized by subcutaneous injection at the base of the tail. The immunization comprised 100 μL of the CFA+Collagen emulsion (prepared according to the method in Experimental Method A). Animals in group one received no immunization. Seven days after the first injection, animals in groups 2-9 received a booster immunization comprising 200 μL of the IFA+Collagen emulsion (prepared according to the method in Experimental Method A).
Starting on Day 0, animals in group 1 and 2 were administered daily doses of the vehicle per os (P.O.) for 21 days.
The twice daily doses for animals in groups 4-9 were 8 hours apart (e.g., the first dose at 8:00 AM and the second dose at 4:00 PM).
Body weight of all animals was recorded daily for the 21-day period. Blind clinical scores on all four limbs were conducted for all animals in the study. Animals were assessed prior to receiving their first dose of the compound or control, and scores for each limb were combined to a total daily score for each animal. Clinical score assessments were performed on Day 0, 6, 12, 13, 14, 15, 18, 19, and 21 (for a total of 9 daily scores).
Paw volume was recorded for each animal on Day 0, 6, 12, 13, 14, 15, 18, 19, and 21 (for a total of 9 measurements). To measure paw volume, animals were gently held with one hand while the hind paw was placed into a plethysmometer with the other hand. Lipid displacement by the paw was recorded and used to represent paw volume.
At the conclusion of the study (end of the 21-day period), animals were euthanized. Euthanasia occurred four hours after animals received their first dose on the morning of Day 21. Hind limbs were collected following euthanasia, with the left limb being used for H&E staining.
All data measured and recorded was analyzed using SPSS 16.0 software. Groups were compared using one-way ANOVA and significance was set at p<0.05.
Arthritis was induced in Lewis rats by immunizing animals with the CFA+Collagen emulsion via subcutaneous injection at the base of the tail on day 0. Seven days after the first immunization, animals received a booster immunization with the IFA+Collagen emulsion via subcutaneous injection at the base of the tail.
Starting on day 0, animals in group 1 and 2 were administered daily doses of the vehicle per os (P.O.) for 21 days. […] The twice daily doses for animals in groups 4-9 were 8 hours apart (e.g., the first dose at 8:00 AM and the second dose at 4:00 PM).

CNC(=O)c1[nH]c(C(=O)NC2CCC2)cc1O[C@@H](C)c1ccccc1 [Example 101, N^5-cyclobutyl-N^2-methyl-3-(1-phenylethoxy)-1H-pyrrole-2,5-dicarboxamide]
Average animal body weight percent change (Day 12, CIA + 30 mg/kg): 0.66%
Mean animal body weight (Day 12, CIA + 30 mg/kg): 163 g
Average animal body weight percent change (Day 13, CIA + 3 mg/kg): 7.74%
Mean animal body weight (Day 13, CIA + 3 mg/kg): 178 g
Average animal body weight percent change (Day 13, CIA + 10 mg/kg): 3.92%
Mean animal body weight (Day 13, CIA + 10 mg/kg): 169 g
Average animal body weight percent change (Day 13, CIA + 30 mg/kg): 0.18%
Mean animal body weight (Day 13, CIA + 30 mg/kg): 162 g
Average animal body weight percent change (Day 14, CIA + 3 mg/kg): 7.08%
Mean animal body weight (Day 14, CIA + 3 mg/kg): 177 g
Average animal body weight percent change (Day 14, CIA + 10 mg/kg): 4.05%
Mean animal body weight (Day 14, CIA + 10 mg/kg): 169 g
Average animal body weight percent change (Day 14, CIA + 30 mg/kg): 1.42%
Mean animal body weight (Day 14, CIA + 30 mg/kg): 164 g
Average animal body weight percent change (Day 15, CIA + 3 mg/kg): 5.15%
Mean animal body weight (Day 15, CIA + 3 mg/kg): 173 g
Average animal body weight percent change (Day 15, CIA + 10 mg/kg): 3.31%
Mean animal body weight (Day 15, CIA + 10 mg/kg): 168 g
Average animal body weight percent change (Day 15, CIA + 30 mg/kg): 2.38%
Mean animal body weight (Day 15, CIA + 30 mg/kg): 166 g
Average animal body weight percent change (Day 16, CIA + 3 mg/kg): 3.90%
Mean animal body weight (Day 16, CIA + 3 mg/kg): 171 g
Average animal body weight percent change (Day 16, CIA + 10 mg/kg): 2.23%
Mean animal body weight (Day 16, CIA + 10 mg/kg): 166 g
Average animal body weight percent change (Day 16, CIA + 30 mg/kg): 1.69%
Mean animal body weight (Day 16, CIA + 30 mg/kg): 165 g
Average animal body weight percent change (Day 17, CIA + 3 mg/kg): 3.37%
Mean animal body weight (Day 17, CIA + 3 mg/kg): 170 g
Average animal body weight percent change (Day 17, CIA + 10 mg/kg): 2.29%
Mean animal body weight (Day 17, CIA + 10 mg/kg): 166 g
Average animal body weight percent change (Day 17, CIA + 30 mg/kg): 1.41%
Mean animal body weight (Day 17, CIA + 30 mg/kg): 164 g
Average animal body weight percent change (Day 18, CIA + 3 mg/kg): 2.36%
Mean animal body weight (Day 18, CIA + 3 mg/kg): 169 g
Average animal body weight percent change (Day 18, CIA + 10 mg/kg): 1.38%
Mean animal body weight (Day 18, CIA + 10 mg/kg): 165 g
Average animal body weight percent change (Day 18, CIA + 30 mg/kg): 1.61%
Mean animal body weight (Day 18, CIA + 30 mg/kg): 165 g
Average animal body weight percent change (Day 19, CIA + 3 mg/kg): 0.91%
Mean animal body weight (Day 19, CIA + 3 mg/kg): 166 g
Average animal body weight percent change (Day 19, CIA + 10 mg/kg): 0.76%
Mean animal body weight (Day 19, CIA + 10 mg/kg): 164 g
Average animal body weight percent change (Day 19, CIA + 30 mg/kg): 1.24%
Mean animal body weight (Day 19, CIA + 30 mg/kg): 164 g
Average animal body weight percent change (Day 20, CIA + 3 mg/kg): 1.13%
Mean animal body weight (Day 20, CIA + 3 mg/kg): 167 g
Average animal body weight percent change (Day 20, CIA + 10 mg/kg): 1.30%
Mean animal body weight (Day 20, CIA + 10 mg/kg): 164 g
Average animal body weight percent change (Day 20, CIA + 30 mg/kg): 0.50%
Mean animal body weight (Day 20, CIA + 30 mg/kg): 163 g
Average animal body weight percent change (Day 21, CIA + 3 mg/kg): 1.73%
Mean animal body weight (Day 21, CIA + 3 mg/kg): 168 g
Average animal body weight percent change (Day 21, CIA + 10 mg/kg): 0.53%
Mean animal body weight (Day 21, CIA + 10 mg/kg): 163 g
Average animal body weight percent change (Day 21, CIA + 30 mg/kg): 0.50%
Mean animal body weight (Day 21, CIA + 30 mg/kg): 163 g
Animal body weight percent change (Day 0, individual animals): 0.00%
Animal body weight [1]: 170 g
Animal body weight percent change [1]: −0.58% and 0.65%
Animal body weight percent change (Day 2, individual animals, 3 mg/kg): 0.62% and 0.56% and −1.20%
Animal body weight [2]: 160 g and 170 g
Animal body weight percent change [2]: −0.62% and −1.13% and −0.60%
Animal body weight (Day 4, individual animals, 3 mg/kg): 170 g
Animal body weight percent change (Day 5, individual animals, 3 mg/kg): 0.00%
Animal body weight (Day 6, individual animals, 3 mg/kg): 180 g and 160 g
Animal body weight [3]: 160 g and 180 g
Animal body weight percent change [3]: 0.63%
Animal body weight (Day 8, individual animals, 3 mg/kg): 160 g
Animal body weight (Day 9, individual animals, 3 mg/kg): 170 g
Animal body weight percent change (Day 10, individual animals, 3 mg/kg): 9.70%
Animal body weight (Day 11, individual animals, 3 mg/kg): 180 g
